The results in this text go back to PubChem BioAssay AID1996.

Values after ≈ are worked out from the molar mass of the structure shown. A value given as a limit tells only on which side of the number the result lay.

For the series the following is noted: buffer; pH 7.4; 200.0 µM.
On to `S=C1SCN(Cc2cccnc2)CN1Cc1ccccc1`, for which the solubility (kinetic) was determined as 38.9 µg/mL (≈ 123 µM).

For the compound `COc1ccc(NC(=O)N2CCCCCC2)c(OC)c1`, the kinetic solubility was greater than 41.8 µg/mL.

Take `Cc1ccc(S(=O)(=O)CC(=O)N2CC(C)OC(C)C2)cc1` (stereo unspecified): the kinetic solubility is greater than 46.7 µg/mL.

In turn, `N#CCCN(C(=O)COC(=O)c1ccc2c(c1)OCCO2)c1ccccc1` yielded a solubility (kinetic) of 52 µg/mL (≈ 142 µM).

For `COc1ccc(N2CC(C(=O)NC3CCCCC3)CC2=O)cc1` (stereo unspecified), the solubility (kinetic) worked out at 25.3 µg/mL (≈ 80 µM).

In the case of `Cc1ccccc1NS(=O)(=O)c1ccc2oc(=O)ccc2c1`, the kinetic solubility is greater than 47.3 µg/mL.

In turn, `COc1ccc(-n2c(C)cc(C(=O)CN3CCC(C)CC3)c2C)cc1` came in with a kinetic solubility of 46.3 µg/mL (≈ 136 µM).

The compound `CC[N+](C)(CC)CCC(c1ccccc1)C1CCCCC1` (stereo unspecified) yielded a kinetic solubility of 29.5 µg/mL.

`Cc1ccccc1C1CCCN(Cc2nc(CC3CC3)no2)C1` (stereo unspecified) came in with a kinetic solubility of 24.1 µg/mL (≈ 77.4 µM).

`OCCN=C1CCCc2c1[nH]c1ccc(Cl)cc21`: the solubility (kinetic) turned out to be 12.3 µg/mL (≈ 46.8 µM).

In turn, `CCN(CC(=O)NC1CCCC1)S(=O)(=O)c1ccc(F)cc1` yielded a kinetic solubility greater than 49.3 µg/mL.

Regarding `COc1ccc2oc(=O)c(C(=O)Nc3ccccc3O)cc2c1`, the kinetic solubility stood at 1 µg/mL (≈ 3.21 µM).

For the compound `CCOC(=O)c1c(C)nc(C)c2c(=O)oc3ccccc3c12`, the kinetic solubility was less than 0.6 µg/mL.

`CNCc1ccccc1OCc1ccccc1F.Cl` yielded a solubility (kinetic) greater than 42.3 µg/mL.

Consider `CC(C)(C)C1CCCCC1NC(=O)c1ccncc1` (stereo unspecified), for which the kinetic solubility turned out to be 4.1 µg/mL (≈ 15.7 µM).

In turn, `N#CCCN(C(=O)CSc1n[nH]c(=O)[nH]c1=O)c1ccccc1` displayed a kinetic solubility greater than 49.7 µg/mL.

In turn, `CC(C)C(=O)NC(NC1CCS(=O)(=O)C1)C(Cl)(Cl)Cl` (stereo unspecified) returned a solubility (kinetic) greater than 52.8 µg/mL.

The compound `O=C(COC(=O)C1CC1)Nc1ccc2[nH]c(=O)[nH]c2c1` yielded a solubility (kinetic) greater than 41.3 µg/mL.

The compound `CCOc1ccc(N=Cc2c(O)n(-c3ccc(C)c(C)c3)c(=O)[nH]c2=O)cc1` came in with a kinetic solubility of 2.9 µg/mL (≈ 7.64 µM).

With `Cc1cc(C)cc(OC(=O)c2cccnc2)c1`, the solubility (kinetic) is 30.6 µg/mL (≈ 135 µM).

For the compound `O=C1C(Cl)=C(N2CCOCC2)C(=O)N1c1ccccc1F`, the solubility (kinetic) was 38.7 µg/mL (≈ 125 µM).

With `Cc1ccc(S(=O)(=O)N2CCC[C@H]2C(=O)Nc2ccccc2C)cc1`, the kinetic solubility was greater than 53.8 µg/mL.

With `COc1cc(SC)ccc1C(=O)N(Cc1ccccc1)c1ccccn1`, the solubility (kinetic) is greater than 54.7 µg/mL.

In turn, `Cc1cc(C)c(S(=O)(=O)c2cccc(Cl)c2)c(=O)[nH]1` showed a kinetic solubility greater than 44.7 µg/mL.

`Cn1ccnc1SCC(=O)c1ccc(C#N)cc1` came in with a kinetic solubility greater than 38.6 µg/mL.

As for `c1cc(OCCCN2CCCCC2)ccc1CN1CCCCC1`, the solubility (kinetic) came to 44.7 µg/mL (≈ 141 µM).

The compound `COc1ccc(/C=N/Nc2nc(C)cc(=O)[nH]2)cc1OC` gave a kinetic solubility greater than 43.2 µg/mL.

Take `O=C(NCc1ccccn1)Nc1ccc(Cl)cc1`: the kinetic solubility was determined as 34 µg/mL (≈ 130 µM).

`Cc1ccc2[nH]c(=O)c(COC(=O)C3CCCCC3)cc2c1` yielded a solubility (kinetic) of 2.9 µg/mL (≈ 9.69 µM).

`CCN(CC)C1CCS(=O)(=O)C1.Cl` (stereo unspecified) registered a kinetic solubility greater than 34.2 µg/mL.

Take `CCN(CC)C(=O)c1c(C)[nH]c(=S)c(C#N)c1-c1ccco1`: the kinetic solubility was greater than 47.3 µg/mL.

Compound `CC1CCN(C(=O)COc2cccc3c2CCN(C)C3=O)CC1` showed a kinetic solubility greater than 47.5 µg/mL.

Compound `CNC(=O)Nc1ccc(C(O)(C(=O)OC)C(F)(F)F)cc1` (stereo unspecified) gave a kinetic solubility greater than 45.9 µg/mL.

Compound `N#CCSc1nc(-c2ccccc2)nc2ccccc12` returned a solubility (kinetic) of less than 0.2 µg/mL.

`Cc1c(C(=O)NC2CCCC2)oc2ccccc12` yielded a kinetic solubility of 33.9 µg/mL (≈ 139 µM).

`COc1ccc(C(=O)O/N=C(\N)Cc2ccc([N+](=O)[O-])cc2)c(OC)c1` returned a kinetic solubility of 39.3 µg/mL (≈ 109 µM).

With `Cc1cccc(N=C2NC(=O)/C(=C/c3cccn3C)S2)c1C`, the kinetic solubility came out at 8.2 µg/mL (≈ 26.3 µM).

`CN1CCc2c(sc(N)c2C(=O)c2ccc(Cl)cc2)C1` registered a solubility (kinetic) of 41.5 µg/mL (≈ 135 µM).

On to `CCN(CC(=O)Nc1c(F)cccc1F)C(=O)CCCc1c[nH]c2ccccc12`, for which the solubility (kinetic) was 7.4 µg/mL (≈ 18.5 µM).

For the compound `Nc1cccc(Oc2ccc3c(c2)C(=O)NC3=O)c1`, the kinetic solubility turned out to be 36.6 µg/mL (≈ 144 µM).

For `CCc1ccccc1NS(=O)(=O)Cc1ccccc1`, the solubility (kinetic) came to 40.2 µg/mL (≈ 146 µM).

Compound `CCCC(=O)c1cc2c(cc1NC(=O)c1ccccc1F)OCCO2` returned a solubility (kinetic) of less than 0.7 µg/mL.

For the compound `Cc1cccc(NC(=O)NCCCCc2ccccc2)c1`, the solubility (kinetic) turned out to be 0.4 µg/mL (≈ 1.42 µM).

`CCOC(=O)c1cn2nc(Oc3cccc(F)c3)ccc2n1` came in with a solubility (kinetic) greater than 45.2 µg/mL.

`Cc1cc(C)nc(Nc2ccc(Br)cc2C(=O)O)n1.Cl` gave a kinetic solubility greater than 53.8 µg/mL.

Consider `COc1ccc(OC)c(NC(=O)COC(=O)CC2CCCCC2)c1`, for which the solubility (kinetic) amounted to 19 µg/mL (≈ 56.6 µM).

`Cc1ccc(C)c(NC(=S)N(C)CCO)c1` yielded a kinetic solubility greater than 35.8 µg/mL.

Turning to `COc1ccccc1NC(=O)c1csc2c1CCC(C)C2` (stereo unspecified), the solubility (kinetic) was determined as 1.2 µg/mL (≈ 3.98 µM).

Take `CCCCN1CC(O)=C(c2nc(-c3ccc(Br)cc3)cs2)C1=N`: the solubility (kinetic) is less than 0.3 µg/mL.

Compound `Cc1ccc(NC(=O)c2sccc2C)nc1` had a solubility (kinetic) of 34.8 µg/mL (≈ 150 µM).

In the case of `Cn1c(NC2CCCCC2)cc(=O)n(C)c1=O`, the kinetic solubility was greater than 35.6 µg/mL.
